Test results published in PubChem BioAssay (NCI).
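Step 1: Grow cells in 96-well plates. Step 2: Expose to compound for 48 hours at 5 concentrations. Step 3: Interpolate endpoints linearly; if unreached, use highest concentration. At the GI50, growth is halved. TGI is the concentration that stops growth completely.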 The source made the active and inactive calls. No stated cut-off is given here; in the data, active means GI50 below about 0.43 µM; inactive means the rest.

Tests used:
Assay in all cases: NCI tumour cell line growth inhibition, 48 h
LXFL 529 NSCLC = system: LXFL 529 NSCLC
RXF-631 renal = system: RXF-631 renal
HOP-18 NSCLC = system: HOP-18 NSCLC
KM20L2 colon = system: KM20L2 colon
DLD-1 colon = system: DLD-1 colon
DMS 114 small cell lung = system: DMS 114 small cell lung
DMS 273 small cell lung = system: DMS 273 small cell lung
M19-MEL melanoma = system: M19-MEL melanoma
XF 498 CNS = system: XF 498 CNS
P388/ADR leukemia = system: P388/ADR leukemia
SN12K1 renal = system: SN12K1 renal

Structure (SMILES) | TGI (LXFL 529 NSCLC) [µM] | TGI (RXF-631 renal) [µM] | TGI (HOP-18 NSCLC) [µM] | TGI (KM20L2 colon) [µM] | TGI (DLD-1 colon) | TGI (DMS 114 small cell lung) | TGI (DMS 273 small cell lung) | TGI (M19-MEL melanoma) | TGI (XF 498 CNS) [µM] | outcome (XF 498 CNS) | GI50 (P388/ADR leukemia) [µg/mL] | TGI (P388/ADR leukemia) | GI50 (SN12K1 renal) [µg/mL] | TGI (SN12K1 renal) | outcome (HOP-18 NSCLC) | outcome (KM20L2 colon) | GI50 (DLD-1 colon) [µg/mL] | GI50 (DMS 114 small cell lung) [µg/mL] | GI50 (DMS 273 small cell lung) [µg/mL] | GI50 (M19-MEL melanoma) [µg/mL]
COC(=O)C1=C(\O)C[C@@]2(C)CC[C@@H](C(=O)OC)C2C/C=C\1C(=O)OC (stereo not given in full) | > 100 | > 100 | > 100 | > 100 | > 100 µM | > 100 µM | > 100 µM | > 100 µM |  |  |  |  |  |  |  |  |  |  |  | 
O=C1c2ccccc2C(=O)c2c1ccc1c2N=C(c2ccc(Br)cc2)CC(c2cccc3ccccc23)N1 (stereo not given) | > 100 | > 100 | > 100 | > 100 | > 100 µM | > 100 µM | > 100 µM |  | > 100 |  |  |  |  |  |  |  |  |  |  | 
CCc1ccc([O-])c(C=NCCCN(C)CCCN=Cc2cc(C)ccc2[O-])c1.[Co+3].[N-]=[N+]=[N-] |  |  |  |  | > 150 µg/mL | > 150 µg/mL | > 150 µg/mL | > 150 µg/mL |  | inactive | 82.9 | > 150 µg/mL | 21.7 | 54.8 µg/mL | inactive | inactive | 61 | 136 | 34.7 | > 150
CC1(C)CC(N2CCN(C3CC(C)(C)NC(C)(C)C3)CC2)CC(C)(C)N1 | > 100 | > 100 | > 100 | > 100 | > 100 µM | > 100 µM | > 100 µM |  | > 100 |  |  |  |  |  |  |  |  |  |  | 
O=C1C(Br)=CC2(C=C1Br)CCNc1c(O)c3c4c(c12)=NCCC=4C=N3 |  |  | 3.4 | 0.413 | 0.0798 µM | 0.101 µM | 0.427 µM | 0.0656 µM | 0.399 |  |  | 0.0155 µM |  | 0.426 µM |  |  |  |  |  | 
COc1c(C)c(O)c2c(c1C)OC(c1ccccc1)CC2=O (stereo not given) | > 100 |  | > 100 | > 100 | > 100 µM | > 100 µM | > 100 µM | > 100 µM |  |  |  |  |  |  |  |  |  |  |  | 
ClCCCCOC1CCCCO1 (stereo not given) | > 100 |  | > 100 | > 100 | > 100 µM | > 100 µM | > 100 µM | > 100 µM | > 100 |  |  |  |  |  |  |  |  |  |  | 
NC(=O)c1cc([N+](=O)[O-])cc([N+](=O)[O-])c1 | > 100 | > 100 |  | > 100 | > 100 µM | > 100 µM | > 100 µM | 46.8 µM |  |  |  |  |  |  |  |  |  |  |  | 
Cn1cnc([N+](=O)[O-])c1Sc1nc2ccc([N+](=O)[O-])cc2[nH]1 | 26.9 |  | > 100 | > 100 | 32.6 µM |  | 4.68 µM | 44.5 µM | 28.9 |  |  |  |  |  |  |  |  |  |  | 
O=C(O)COc1ccc(C(=O)/C(SS/C(C(=O)c2ccc(OCC(=O)O)c(Cl)c2Cl)=C2\C=C(c3ccccc3Cl)SS2)=C2/C=C(c3ccccc3Cl)SS2)c(Cl)c1Cl | 19.9 | > 84.9 | > 72.4 | > 100 | > 65.4 µM | 26.1 µM | 56.9 µM | > 66.6 µM | 50.4 |  |  |  |  |  |  |  |  |  |  | 
c1ccc2c(c1)N=C(c1ccc3ccccc3c1)CC(c1cccc3ccccc13)S2 (stereo not given) | > 100 | > 100 | > 100 | > 100 | > 100 µM | > 100 µM | > 100 µM | > 100 µM | > 100 |  |  |  |  |  |  |  |  |  |  | 
COc1ccc(/C=C2\CCC(Cc3ccccc3)(CN(C)C)C2=O)cc1 (stereo not given) | > 100 |  | > 100 | 59.6 | > 100 µM | 48.6 µM | 32.5 µM | 70.7 µM |  |  |  |  |  |  |  |  |  |  |  | 
Nc1nc2ncn(CC(O)COC(=O)c3ccccc3)c2c(=O)[nH]1 (stereo not given) | > 100 | > 100 | > 100 | > 100 | > 100 µM | > 100 µM | > 100 µM | > 100 µM | > 100 |  |  |  |  |  |  |  |  |  |  | 
NC(=O)c1ncn(Cc2ccccc2)c1CNC(N)=S | > 100 | > 100 | > 100 |  | > 100 µM | > 100 µM | > 100 µM | > 100 µM | > 100 |  |  |  |  |  |  |  |  |  |  | 
CCCCCCCCCCCC(=O)OC(COC(N)=O)COc1ccc(Cl)cc1 (stereo not given) | 45.2 | 67.7 | 95.7 | > 100 | > 100 µM | 33.1 µM | 40.9 µM | 32.9 µM | 45.8 |  |  |  |  |  |  |  |  |  |  | 
CC1CC(c2ccc(Cl)c(Cl)c2)=Nc2ccccc2S1 (stereo not given) | > 100 |  | > 100 | > 100 | > 100 µM | > 100 µM | > 100 µM | > 100 µM | > 100 |  |  |  |  |  |  |  |  |  |  | 
CN1CCc2cc3c4cc2C1Cc1ccc(cc1)Oc1cc(ccc1O)CC1c2c(cc(O)c(c2O4)O3)CCN1C (stereo not given) | 6.26 | 7.92 | 18.5 | 10.3 | 14.8 µM | 4.58 µM | 3.84 µM | 3.35 µM |  |  |  |  |  |  |  |  |  |  |  | 
NCC1(N2CCOCC2)C2CCCC21CNc1ccccc1 (stereo not given) | > 100 | > 100 | > 100 |  | > 100 µM | > 100 µM | > 100 µM | > 100 µM | > 100 |  |  |  |  |  |  |  |  |  |  | 
CCCCC(C(=O)CCC(=O)Nc1ccc(Cl)cc1)C(=O)C(C)C (stereo not given) | > 100 | > 100 |  | > 100 | > 100 µM | > 100 µM | > 100 µM | > 100 µM | > 100 |  |  |  |  |  |  |  |  |  |  | 
COC(=O)C1(O)c2ccccc2N=C2C1CCN2C (stereo not given) | > 100 |  | > 100 | > 100 | > 100 µM | > 100 µM |  |  | > 100 |  |  |  |  |  |  |  |  |  |  | 
COC(CC1(OC)OC(=O)C=C1N)OC (stereo not given) | > 100 |  | > 100 |  | > 100 µM | > 100 µM | > 100 µM | > 100 µM |  |  |  |  |  |  |  |  |  |  |  | 
Cc1ccc2nc3c(C)cc(=O)cc-3sc2c1 | > 100 | > 100 | > 100 | > 100 | > 100 µM | 45.5 µM | > 100 µM | 31 µM |  |  |  |  |  |  |  |  |  |  |  | 
